Reference: PubChem BioAssay AID256 (DTP/NCI, 2004)
“And” between values parts separate entries of the source, which are not always exact repeats. Equal entries are not always repeated. Inconclusive results and toxic doses are left out.

System: CD2F1 mice, L1210 leukemia ip, survival T/C
Assay: NCI In Vivo Anticancer Drug Screen. Data for tumor model L1210 Leukemia (intraperitoneal) in CD2F1 (CDF1) mice
Conditions: higher = longer survival
Procedure, shortened: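 Implant tumor; dose compound or vehicle; measure endpoint in both groups; report treated divided by control.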

[1] = endpoint: mean survival time, dose: 200.0 mg/kg/injection, schedule: Q01DX001 (ip), vehicle: saline with Tween-80
[2] = endpoint: mean survival time, dose: 400.0 mg/kg/injection, schedule: Q01DX001 (ip), vehicle: saline with Tween-80
[3] = endpoint: mean survival time, dose: 100.0 mg/kg/injection, schedule: Q01DX001 (ip), vehicle: saline with Tween-80

For `COc1nc(NC2OCC(O)C(O)C2O)c(C(C)=O)c(=O)n1C` (configuration not stated), the T/C (endpoint: median survival time, dose: 12.5 mg/kg/injection, schedule: Q01DX005 (ip), vehicle: saline with Tween-80) was 91 % of control, the T/C (endpoint: median survival time, dose: 25.0 mg/kg/injection, schedule: Q01DX005 (ip), vehicle: saline with Tween-80) was 98 % of control and the T/C (endpoint: median survival time, dose: 50.0 mg/kg/injection, schedule: Q01DX005 (ip), vehicle: saline with Tween-80) was 97 % of control. The T/C (endpoint: median survival time, dose: 100.0 mg/kg/injection, schedule: Q01DX005 (ip), vehicle: saline with Tween-80) was 96 % of control and the T/C (endpoint: median survival time, dose: 200.0 mg/kg/injection, schedule: Q01DX005 (ip), vehicle: saline with Tween-80) was 96 % of control.

In the case of `COCCNC1=C(C)C(=O)C2=C(C1=O)[C@H](COC(N)=O)[C@]1(OC)[C@@H]3N[C@@H]3CN21`, the T/C (endpoint: mean survival time, dose: 3.0 mg/kg/injection, schedule: Q01DX001 (ip), vehicle: distilled water + Tween-80) is reported as 114 % of control and the T/C (endpoint: mean survival time, dose: 24.0 mg/kg/injection, schedule: Q01DX001 (ip), vehicle: distilled water + Tween-80) is reported as 123 % of control.

`C=C(C)C1CNC(C(=O)O)C1CC(=O)O` (configuration not stated) was tested, and the T/C (endpoint: mean survival time, dose: 6.25 mg/kg/injection, schedule: Q04DX003 (ip), vehicle: saline sonified) was 97 % of control, the T/C (endpoint: mean survival time, dose: 12.5 mg/kg/injection, schedule: Q04DX003 (ip), vehicle: saline sonified) was 95 % of control and the T/C (endpoint: mean survival time, dose: 25.0 mg/kg/injection, schedule: Q04DX003 (ip), vehicle: saline sonified) was 109 % of control.

In the case of `CCCCCCCCCCC(N)P(=O)(O)O` (configuration not stated), the T/C (endpoint: mean survival time, dose: 25.0 mg/kg/injection, schedule: Q04DX003 (ip), vehicle: saline with Tween-80) is reported as 91 % of control and the T/C (endpoint: mean survival time, dose: 50.0 mg/kg/injection, schedule: Q04DX003 (ip), vehicle: saline with Tween-80) is reported as 91 % of control.

With `COc1ccc(/C=C/C(=O)Oc2cc(O)cc(O)c2)cc1` the T/C (endpoint: mean survival time, dose: 12.5 mg/kg/injection, schedule: Q04DX002 (ip), vehicle: saline with Tween-80) was 97 % of control, the T/C (endpoint: mean survival time, dose: 25.0 mg/kg/injection, schedule: Q04DX002 (ip), vehicle: saline with Tween-80) was 93 % of control and the T/C (endpoint: mean survival time, dose: 50.0 mg/kg/injection, schedule: Q04DX002 (ip), vehicle: saline with Tween-80) was 101 % of control. The T/C [1] was 94 % of control and the T/C [2] was 92 % of control.

In the case of `O=c1c2ccccc2sc2c1ccc1ccccc12`, the T/C [3] is reported as 100 % of control, the T/C [1] is reported as 101 % of control and the T/C [2] is reported as 94 % of control.

With `NS(=O)(=O)c1ccc(Cl)c2ccccc12` the T/C [3] was 93 % of control and the T/C [1] was 98 % of control.

With `Nc1ccn([C@@H](C=O)C[C@@H](C=O)CO)c(=O)n1` the T/C (endpoint: median survival time, dose: 25.0 mg/kg/injection, schedule: Q01DX009 (ip), vehicle: saline) was 107 % of control, the T/C (endpoint: median survival time, dose: 50.0 mg/kg/injection, schedule: Q01DX009 (ip), vehicle: saline) was 121 % of control and 112 % of control and the T/C (endpoint: median survival time, dose: 100.0 mg/kg/injection, schedule: Q01DX009 (ip), vehicle: saline) was 121 % of control and 124 % of control. The T/C (endpoint: median survival time, dose: 400.0 mg/kg/injection, schedule: Q01DX009 (ip), vehicle: saline) was 153 % of control and 161 % of control.

`CN(C)C(=O)Oc1cccc(NC(=O)Nc2cccc(OC(=O)N(C)C)c2)c1` was tested, and the T/C [3] was 105 % of control, the T/C [1] was 98 % of control and the T/C [2] was 97 % of control.

`CCCCCCCCCCCCNC(=O)OCCN(CCOC(=O)NCCCCCCCCCCCC)C(=O)COc1ccc(Cl)cc1` was tested, and the T/C (endpoint: mean survival time, dose: 100.0 mg/kg/injection, schedule: Q04DX003 (ip), vehicle: other) was 86 % of control, the T/C (endpoint: mean survival time, dose: 200.0 mg/kg/injection, schedule: Q04DX003 (ip), vehicle: other) was 91 % of control and the T/C (endpoint: mean survival time, dose: 400.0 mg/kg/injection, schedule: Q04DX003 (ip), vehicle: other) was 93 % of control.

For `C/C(=C\Cl)CN(C)C`, the T/C (endpoint: mean survival time, dose: 50.0 mg/kg/injection, schedule: Q01DX009 (ip), vehicle: acetone) was 97 % of control and the T/C (endpoint: mean survival time, dose: 100.0 mg/kg/injection, schedule: Q01DX009 (ip), vehicle: acetone) was 103 % of control.

`O=C1CCCC(=O)N1CCCCCCN1C(=O)CCCC1=O` was tested, and the T/C (endpoint: mean survival time, dose: 100.0 mg/kg/injection, schedule: Q01DX009 (ip), vehicle: saline with Tween-80) was 94 % of control, the T/C (endpoint: mean survival time, dose: 100.0 mg/kg/injection, schedule: Q04DX003 (ip), vehicle: saline with Tween-80) was 100 % of control and the T/C (endpoint: mean survival time, dose: 200.0 mg/kg/injection, schedule: Q01DX009 (ip), vehicle: saline with Tween-80) was 108 % of control. For the same compound, the T/C (endpoint: mean survival time, dose: 200.0 mg/kg/injection, schedule: Q04DX003 (ip), vehicle: saline with Tween-80) was 101 % of control and the T/C (endpoint: mean survival time, dose: 400.0 mg/kg/injection, schedule: Q04DX003 (ip), vehicle: saline with Tween-80) was 101 % of control.

In the case of `N#CC(Cl)(Cl)C(N)=O`, the T/C (endpoint: mean survival time, dose: 1.56 mg/kg/injection, schedule: Q04DX002 (ip), vehicle: saline) is reported as 102 % of control, the T/C (endpoint: mean survival time, dose: 3.13 mg/kg/injection, schedule: Q04DX002 (ip), vehicle: saline) is reported as 92 % of control and the T/C (endpoint: mean survival time, dose: 6.25 mg/kg/injection, schedule: Q04DX002 (ip), vehicle: saline) is reported as 98 % of control.
